Data published in ChEMBL document CHEMBL3632576, “Tacrine-Trolox Hybrids: A Novel Class of Centrally Active, Nonhepatotoxic Multi-Target-Directed Ligands Exerting Anticholinesterase and Antioxidant Activities with Low In Vivo Toxicity” (J Med Chem, 2015).
Calls of active or inactive are those of the source. No cut-off for these calls is given here.

Legend:
Acetylcholinesterase [1] = molecular target: T1, Acetylcholinesterase (Homo sapiens, UniProt P22303)
Description: Inhibition of human recombinant AChE using acetylthiocholine as substrate preincubated for 5 mins followed by substrate addition measured every 2 mins by Ellman's method

Cholinesterase = Cholinesterase (Homo sapiens, UniProt P06276)
Sequence of Cholinesterase (P06276 whole entry): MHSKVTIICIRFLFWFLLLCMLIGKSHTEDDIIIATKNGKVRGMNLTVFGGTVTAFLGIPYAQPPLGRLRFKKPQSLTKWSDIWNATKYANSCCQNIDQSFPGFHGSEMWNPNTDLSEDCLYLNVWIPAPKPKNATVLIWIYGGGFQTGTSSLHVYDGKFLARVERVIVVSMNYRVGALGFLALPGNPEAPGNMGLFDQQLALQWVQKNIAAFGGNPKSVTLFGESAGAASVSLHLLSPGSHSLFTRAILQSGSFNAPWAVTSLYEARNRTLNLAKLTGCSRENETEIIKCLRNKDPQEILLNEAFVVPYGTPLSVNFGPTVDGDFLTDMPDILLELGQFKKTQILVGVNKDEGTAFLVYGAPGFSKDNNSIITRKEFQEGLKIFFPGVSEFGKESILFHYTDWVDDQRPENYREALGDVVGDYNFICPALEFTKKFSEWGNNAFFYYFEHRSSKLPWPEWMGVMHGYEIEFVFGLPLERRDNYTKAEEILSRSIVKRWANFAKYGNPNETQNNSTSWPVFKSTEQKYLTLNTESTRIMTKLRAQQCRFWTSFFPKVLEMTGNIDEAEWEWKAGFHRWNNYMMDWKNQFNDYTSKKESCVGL
Description: Inhibition of human plasmatic BChE using butyrylthiocholine as substrate preincubated for 5 mins followed by substrate addition measured every 2 mins by Ellman's method

HepG2 [2] = assay: Hepatotoxicity in human HepG2 cells assessed as cell viability at 2 uM after 24 hrs by MTT assay; format: toxicity, cell-based; conditions: hepg2, 24 h
[3] = Permeability of the compound at 50 to 100 uM after 18 hrs by PAMPA; format: physicochemical; conditions: read-out: permeability
Liver microsome [4] = assay: Retention time of the compound in human liver microsomes by LC-MS/MS analysis; format: ADME
in vitro = conditions: human, HepG2 cells
Description: Hepatotoxicity in human HepG2 cells assessed as cell viability after 24 hrs by MTT assay

[5] = Acute toxicity in im dosed albino Wistar rat assessed as mortality measured within 48 hrs; format: organism-based; conditions: in vivo
[6] = Metabolic stability in human liver microsomes assessed as compound remaining at 50 ug/ml after 1 hr by LC-MS/MS analysis; format: ADME; conditions: read-out: Stability
Acetylcholinesterase [7] = molecular target: T1, Acetylcholinesterase; conditions: 100 to 562 nM
[8] = Metabolic stability in human liver microsomes assessed as compound remaining at 1 ug/ml after 1 hr by LC-MS/MS analysis; format: ADME; conditions: read-out: Stability
Acetylcholinesterase [9] = molecular target: T1, Acetylcholinesterase; assay: Competitive inhibition of human recombinant AChE using acetylthiocholine as substrate preincubated for 5 mins followed by substrate addition measured every 2 mins by Lineweaver-Burk plot analysis
HepG2 [10] = assay: Hepatotoxicity in human HepG2 cells assessed as cell viability at 0.5 uM after 24 hrs by MTT assay; format: toxicity, cell-based; conditions: hepg2, 24 h
Liver microsome [11] = assay: Drug metabolism in human liver microsomes assessed as decrease in 8-(6-chloro-1,2,3,4-tetrahydroacridin-9-ylamino)octanoic acid AUC after 1 hr by extracted ion chromatogram analysis; format: ADME
[12] = Metabolic stability in human liver microsomes assessed as compound remaining at 20 ug/ml after 1 hr by LC-MS/MS analysis; format: ADME; conditions: read-out: Stability
HepG2 [13] = assay: Hepatotoxicity in human HepG2 cells assessed as cell viability at 512 uM after 24 hrs by MTT assay; format: toxicity, cell-based; conditions: hepg2, 24 h

T1 sequence (P22303 whole entry): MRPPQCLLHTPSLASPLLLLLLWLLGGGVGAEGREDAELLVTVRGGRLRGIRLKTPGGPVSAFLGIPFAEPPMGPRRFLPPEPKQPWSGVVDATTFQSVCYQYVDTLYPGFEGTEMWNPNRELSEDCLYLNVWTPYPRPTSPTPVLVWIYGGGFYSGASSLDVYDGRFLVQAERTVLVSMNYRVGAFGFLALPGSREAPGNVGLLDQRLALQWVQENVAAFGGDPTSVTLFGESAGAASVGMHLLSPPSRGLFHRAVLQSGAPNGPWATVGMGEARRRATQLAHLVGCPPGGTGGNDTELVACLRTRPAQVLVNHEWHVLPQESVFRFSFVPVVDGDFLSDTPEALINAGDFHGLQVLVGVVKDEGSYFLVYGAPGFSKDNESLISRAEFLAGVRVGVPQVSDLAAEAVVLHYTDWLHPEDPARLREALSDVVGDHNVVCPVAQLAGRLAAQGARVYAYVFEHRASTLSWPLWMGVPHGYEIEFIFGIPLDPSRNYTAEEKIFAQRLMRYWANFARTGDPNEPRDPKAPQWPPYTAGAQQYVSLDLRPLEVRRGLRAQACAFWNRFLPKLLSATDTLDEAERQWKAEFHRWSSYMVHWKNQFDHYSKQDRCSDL

Structure (SMILES) | IC50 (Acetylcholinesterase [1]) | IC50 (Cholinesterase) | EC50 | also measured
COc1ccc2nc3c(c(NCCCCCNC(=O)C4(C)CCc5c(C)c(O)c(C)c(C)c5O4)c2c1)CCCC3 (stereo not given) | 13.3 µM | 0.4 µM | 62.7 µM | 
Cc1c(C)c2c(c(C)c1O)CCC(C)(C(=O)NCCCCCNc1c3c(nc4cc(Cl)ccc14)CCCC3)O2 (stereo not given) | 0.12 µM | 0.13 µM | 49.8 µM | 
COc1ccc2nc3c(c(NCCCNC(=O)C4(C)CCc5c(C)c(O)c(C)c(C)c5O4)c2c1)CCCC3 (stereo not given) | 1.54 µM | 0.62 µM | > 100 µM | Activity (HepG2 [2]): Non-toxic
Cc1c(C)c2c(c(C)c1O)CCC(C)(C(=O)NCCNc1c3c(nc4ccccc14)CCCC3)O2 (stereo not given) | 6.97 µM | 0.06 µM | > 100 µM | Papp at 18 h, 100 µM [3]: 4.4 ×10⁻⁶ cm/s
CC1=C(C)C(=O)C(CCC(C)(O)C(=O)NCCCCCCCCNc2c3c(nc4cc(Cl)ccc24)CCCC3)=C(C)C1=O (stereo not given) |  |  |  | Retention_time (Liver microsome [4]): 7.35 min
COc1ccc2nc3c(c(N)c2c1)CCCC3 |  |  | > 100 µM | IC50 at 24 h (in vitro): 11.5 µM
CC1=C(C)C(=O)C(CCC(C)(O)C(=O)NC(O)CCCCCCCNc2c3c(nc4cc(Cl)ccc24)CCCC3)=C(C)C1=O (stereo not given) |  |  |  | Retention_time (Liver microsome [4]): 7.1 min
COc1ccc2nc3c(c(NCCCCCCCCNC(=O)C4(C)CCc5c(C)c(O)c(C)c(C)c5O4)c2c1)CCCC3 (stereo not given) | 3.48 µM | 1.53 µM | > 100 µM | IC50 at 24 h (in vitro): 0.92 µM
Nc1c2c(nc3cc(Cl)ccc13)CCCC2 |  |  | > 100 µM | LD50 at 48 h [5]: 7.5 mg/kg; IC50 at 24 h (in vitro): 7.13 µM
Cc1c(C)c2c(c(C)c1O)CCC(C)(C(=O)NCCCCCCCCNc1c3c(nc4ccccc14)CCCC3)O2 (stereo not given) | 0.69 µM | 0.16 µM | 66.5 µM | 
Cc1c(C)c2c(c(C)c1O)CCC(C)(C(=O)NCCCCCCCNc1c3c(nc4ccccc14)CCCC3)O2 (stereo not given) | 0.69 µM | 0.13 µM | > 100 µM | 
Cc1c(C)c2c(c(C)c1O)CCC(C)(C(=O)NCCCCCCCCNc1c3c(nc4cc(Cl)ccc14)CCCC3)O2 (stereo not given) | 0.08 µM | 0.54 µM | 44.1 µM | remaining at 1 h, 50 ug/ml [6]: 85.4%; Papp at 18 h, 100 µM [3]: 5 ×10⁻⁶ cm/s; inhibition (Acetylcholinesterase [7]): Active; remaining at 1 h, 1 ug/ml [8]: 58.2%; Ki (Acetylcholinesterase [9]): 0.0495 µM; LD50 at 48 h [5]: > 500 mg/kg; Activity (HepG2 [10]): Non-toxic; Retention_time (Liver microsome [4]): 7.52 min; Drug metabolism (Liver microsome [11]): 3.1%; remaining at 1 h, 20 ug/ml [12]: 85.5%
Cc1c(C)c2c(c(C)c1O)CCC(C)(C(=O)NCCCCCCNc1c3c(nc4ccccc14)CCCC3)O2 (stereo not given) | 0.36 µM | 0.19 µM | 61.8 µM | IC50 at 24 h (in vitro): 2 µM
OCCCCCCCCNc1c2c(nc3cc(Cl)ccc13)CCCC2 |  |  |  | Retention_time (Liver microsome [4]): 6.56 min
Cc1c(C)c2c(c(C)c1O)CCC(C)(C(=O)O)O2 (stereo not given) [TROLOX] | 186 µM | > 1000 µM | 16.2 µM | Activity (HepG2 [13]): Non-toxic
O=C(O)CCCCCCCNc1c2c(nc3cc(Cl)ccc13)CCCC2 |  |  |  | Retention_time (Liver microsome [4]): 6.52 min
Cc1c(C)c2c(c(C)c1O)CCC(C)(C(=O)NCCCCCNc1c3c(nc4ccccc14)CCCC3)O2 (stereo not given) | 0.62 µM | 0.56 µM | 65.6 µM | IC50 at 24 h (in vitro): 8.7 µM
Cc1c(C)c2c(c(C)c1O)CCC(C)(C(=O)NCCCCNc1c3c(nc4ccccc14)CCCC3)O2 (stereo not given) | 0.95 µM | 0.08 µM | > 100 µM | 
Cc1c(C)c2c(c(C)c1O)CCC(C)(C(=O)NCCCCCCCNc1c3c(nc4cc(Cl)ccc14)CCCC3)O2 (stereo not given) | 0.08 µM | 0.7 µM | 44.2 µM | Activity (HepG2 [10]): Non-toxic
COc1ccc2nc3c(c(NCCNC(=O)C4(C)CCc5c(C)c(O)c(C)c(C)c5O4)c2c1)CCCC3 (stereo not given) | 4.36 µM | 1.3 µM | 95.9 µM | IC50 at 24 h (in vitro): 4.9 µM
COc1ccc2nc3c(c(NCCCCCCNC(=O)C4(C)CCc5c(C)c(O)c(C)c(C)c5O4)c2c1)CCCC3 (stereo not given) | 6.61 µM | 0.69 µM | 58.8 µM | 
Cc1c(C)c2c(c(C)c1O)CCC(C)(C(=O)NCCCCNc1c3c(nc4cc(Cl)ccc14)CCCC3)O2 (stereo not given) | 0.15 µM | 0.09 µM | 50.8 µM | 
Cc1c(C)c2c(c(C)c1O)CCC(C)(C(=O)NCCNc1c3c(nc4cc(Cl)ccc14)CCCC3)O2 (stereo not given) | 0.21 µM | 0.02 µM | 67.8 µM | 
Cc1c(C)c2c(c(C)c1O)CCC(C)(C(=O)NCCCNc1c3c(nc4ccccc14)CCCC3)O2 (stereo not given) | 0.26 µM | 0.08 µM | 51.3 µM | IC50 at 24 h (in vitro): 13.2 µM
COc1ccc2nc3c(c(NCCCCNC(=O)C4(C)CCc5c(C)c(O)c(C)c(C)c5O4)c2c1)CCCC3 (stereo not given) | 7.21 µM | 0.29 µM | > 100 µM | 
Cc1c(C)c2c(c(C)c1O)CCC(C)(C(=O)NCCCCCCNc1c3c(nc4cc(Cl)ccc14)CCCC3)O2 (stereo not given) | 0.1 µM | 0.4 µM | 48.8 µM | IC50 at 24 h (in vitro): 0.7 µM
COc1ccc2nc3c(c(NCCCCCCCNC(=O)C4(C)CCc5c(C)c(O)c(C)c(C)c5O4)c2c1)CCCC3 (stereo not given) | 6.72 µM | 0.7 µM | 59 µM | 
Cc1c(C)c2c(c(C)c1O)CCC(C)(C(=O)NCCCNc1c3c(nc4cc(Cl)ccc14)CCCC3)O2 (stereo not given) | 0.08 µM | 0.77 µM | 48.8 µM | 
